pEC50: −log10 of the molar value. The source made the active and inactive calls. The rule behind the calls is not given here.
How the values were obtained:
Hepatitis C virus [1] = experiment: Antiviral activity against HCV J6/JFH/JC-1 infected in human Huh7.5 cells assessed as inhibition of NS3/4A S282T mutant levels at 0.01 to 1 uM treated with fresh media containing compound every 2 days by Western blot method; assay type: functional, organism-based; conditions: Hepacivirus hominis
Hepatitis C virus [2] = experiment: Antiviral activity against HCV J6/JFH/JC-1 infected in human Huh7.5 cells harboring […] S282T mutant assessed as inhibition of viral core protein levels at 0.01 to 1 uM treated with fresh media containing compound every 2 days by Western blot method; assay type: functional, organism-based; conditions: Hepacivirus hominis
Hepatitis C virus [3] = experiment: Antiviral activity against HCV infected in human GS4.3 cells assessed as inhibition of NS3/4A levels at 0.8 uM treated with fresh media containing compound every 2 days measured after 6 days by Western blot method; assay type: functional, organism-based; conditions: Hepacivirus hominis
Hepatitis C virus [4] = experiment: Antiviral activity against HCV infected in human GS4.3 cells assessed as inhibition of viral core protein levels at 0.8 uM treated with fresh media containing compound every 2 days measured after 6 days by Western blot method; assay type: functional, organism-based; conditions: Hepacivirus hominis
Hepatitis C virus [5] = experiment: Antiviral activity against 22.5 to 90 IU/cell of HCV J6/JFH/JC-1 infected in human Huh7.5 cells assessed as inhibition of NS3/4A levels at 0.05 uM treated with fresh media containing compound every 2 days by Western blot method; assay type: functional, organism-based; conditions: Hepacivirus hominis
Hepatitis C virus [6] = experiment: Antiviral activity against 22.5 to 90 IU/cell of HCV J6/JFH/JC-1 infected in human Huh7.5 cells assessed as inhibition of viral core protein levels at 0.05 uM treated with fresh media containing compound every 2 days by Western blot method; assay type: functional, organism-based; conditions: Hepacivirus hominis
Hepatitis C virus [7] = experiment: Antiviral activity against HCV J6/JFH/JC-1 infected in human Huh7.5 cells assessed as inhibition of viral RNA replication after 72 hrs by qRT-PCR method; assay type: functional, organism-based, Hepacivirus hominis; conditions: J6/JFH/JC-1, Huh7.5, 72 h
[8] = Cytotoxicity against human Huh7.5 cells after 72 hrs by MTT assay; assay type: cell-based
[9] = Selectivity index, ratio of CC50 for human Huh7.5 cells to EC50 for HCV J6/JFH/JC-1; assay type: toxicity; conditions: read-out: Ratio CC50/EC50
Hepatitis C virus [10] = experiment: Antiviral activity against HCV J6/JFH/JC-1 infected in human Huh7.5 cells assessed as inhibition of viral core protein levels at 0.5 uM by Western blot method; assay type: functional, organism-based; conditions: Hepacivirus hominis, TDE = time-dependent effect
Hepatitis C virus [11] = experiment: Antiviral activity against HCV J6/JFH/JC-1 infected in human Huh7.5 cells assessed as inhibition of NS3/4A protein levels at 0.5 uM by Western blot method; assay type: functional, organism-based; conditions: Hepacivirus hominis, TDE = time-dependent effect
Hepatitis C virus [12] = experiment: Antiviral activity against HCV J6/JFH/JC-1 infected in human Huh7.5 cells assessed as inhibition of NS3/4A A156T mutant levels at 0.01 to 1 uM treated with fresh media containing compound every 2 days by Western blot method; assay type: functional, organism-based; conditions: Hepacivirus hominis
Hepatitis C virus [13] = experiment: Antiviral activity against HCV J6/JFH/JC-1 infected in human Huh7.5 cells harboring NS3/4A A156T mutant assessed as inhibition of viral core protein levels at 0.01 to 1 uM treated with fresh media containing compound every 2 days by Western blot method; assay type: functional, organism-based; conditions: Hepacivirus hominis
Hepatitis C virus [14] = experiment: Antiviral activity against HCV infected in human GS4.3 cells assessed as inhibition of NS3/4A levels at 0.5 uM treated with fresh media containing compound every 2 days measured after 6 days by Western blot method; assay type: functional, organism-based; conditions: Hepacivirus hominis
Hepatitis C virus [15] = experiment: Antiviral activity against HCV infected in human GS4.3 cells assessed as inhibition of viral core protein levels at 0.5 uM treated with fresh media containing compound every 2 days measured after 6 days by Western blot method; assay type: functional, organism-based; conditions: Hepacivirus hominis
Hepatitis C virus [16] = experiment: Antiviral activity against HCV J6/JFH/JC-1 infected in human Huh7.5 cells assessed as inhibition of NS3/4A levels at 0.05 uM preincubated for 2 hrs followed by centrifugation for 4 hrs and subsequent addition of Huh7.5 cells measured within 72 hrs by Western blot method; assay type: functional, organism-based; conditions: Hepacivirus hominis
Hepatitis C virus [17] = experiment: Antiviral activity against HCV J6/JFH/JC-1 infected in human Huh7.5 cells assessed as inhibition of viral core protein levels at 0.05 uM preincubated for 2 hrs followed by centrifugation for 4 hrs and subsequent addition of Huh7.5 cells measured within 72 hrs by Western blot method; assay type: functional, organism-based; conditions: Hepacivirus hominis
Hepatitis C virus [18] = experiment: Antiviral activity against HCV J6/JFH/JC-1 infected in human Huh7.5 cells assessed as inhibition of NS3/4A levels at 0.05 uM preincubated for 2 hrs followed addition of Huh7.5 cells for 4 hrs measured within 72 hrs by Western blot method; assay type: functional, organism-based; conditions: Hepacivirus hominis
Hepatitis C virus [19] = experiment: Antiviral activity against HCV J6/JFH/JC-1 infected in human Huh7.5 cells assessed as inhibition of viral core protein levels at 0.05 uM preincubated for 2 hrs followed addition of Huh7.5 cells for 4 hrs measured within 72 hrs by Western blot method; assay type: functional, organism-based; conditions: Hepacivirus hominis

SMILES	inhibition (Hepatitis C virus [1])	inhibition (Hepatitis C virus [2])	inhibition (Hepatitis C virus [3])	inhibition (Hepatitis C virus [4])	inhibition (Hepatitis C virus [5])	inhibition (Hepatitis C virus [6])	pEC50 (Hepatitis C virus [7])	CC50 at 72 h [8] [µM]	selectivity ratio [9]	inhibition (Hepatitis C virus [10])	inhibition (Hepatitis C virus [11])	inhibition (Hepatitis C virus [12])	inhibition (Hepatitis C virus [13])	inhibition (Hepatitis C virus [14])	inhibition (Hepatitis C virus [15])	inhibition (Hepatitis C virus [16])	inhibition (Hepatitis C virus [17])	inhibition (Hepatitis C virus [18])	inhibition (Hepatitis C virus [19])
CC(C)OC(=O)[C@H](C)NP(=O)(OC[C@H]1O[C@@H](n2ccc(=O)[nH]c2=O)[C@](C)(F)[C@@H]1O)Oc1ccccc1 (some centres undefined)	inactive	inactive	Active	Active	inactive	inactive													
CCC[C@H](NC(=O)[C@@H]1[C@H]2CCC[C@H]2CN1C(=O)[C@@H](NC(=O)[C@@H](NC(=O)c1cnccn1)C1CCCCC1)C(C)(C)C)C(=O)C(=O)NC1CC1 [TELAPREVIR]							7.52	25.2	840	Tde	Tde	inactive	inactive	Active	Active	inactive	inactive	Active	Active

Source: ChEMBL document CHEMBL4251597, “Discovery and evolution of aloperine derivatives as a new family of HCV inhibitors with novel mechanism” (Eur J Med Chem, 2018)
